Measurements as given in patent US8008092B2, “CCR3 inhibition for ocular angiogenesis and macular degeneration” (University of Kentucky Research Foundation, priority 2007, dated 2011).

Experiments:
[1] = system: choroidal neovascularization (CNV); assay: Laser-induced choroidal neovascularization (CNV) volume, intravitreous injection; format: in vivo, C57BL/6J mice; details: wild-type mice, injected into the vitreous humor immediately after laser injury; compared to vehicle control (DMSO)
Method: Laser photocoagulation (532 nm, 200 mW, 100 ms, 75 μm) (OcuLight GL, Iridex Corporation) was performed (volume studies: 3/eye; protein analyses/flow cytometry: 12/eye) on both eyes of each animal to induce CNV (choroidal neovascularization). CNV volumes were measured by scanning laser confocal microscope (TCS SP, Leica) with 0.5% FITC-Griffonia simplicifolia Isolectin B4 (Vector Laboratories). CNV was induced by laser injury in C57BL/6J and Ccr3^−/− mice and volumes measured 7 days later by confocal evaluation of Griffonia simplicifolia Isolectin B4 staining of RPE-choroid flatmounts. […]
Because the probability of each laser lesion developing CNV is influenced by the group to which it belongs, the mouse, the eye, and the laser spot, the mean lesion volumes were compared using a linear mixed model with a split plot repeated measures design. […] Statistical significance was determined at the 0.05 level. […]
Laser photocoagulation (532 nm, 200 mW, 100 ms, 75 μm) (OcuLight GL, Iridex Corporation) was performed (volume studies: 3/eye; protein analyses/flow cytometry: 12/eye) on both eyes of each animal to induce CNV. CNV volumes were measured by scanning laser confocal microscope (TCS SP, Leica) with 0.5% FITC-Griffonia simplicifolia Isolectin B4 (Vector Laboratories) or 0.5% FITC-rat antibody against mouse CD31 (BD Biosciences). […]

primary hCEC = assay: F-actin polymerization assay; format: cell-based, human; details: eotaxin-1 10 ng/mL, eotaxin-2 100 ng/mL, eotaxin-3 2 μg/mL
Method: A F-actin polymerization assay was performed. 10,000 cells from early passage primary hCEC isolates (n=3) were seeded in black-walled 96-well plates and grown to 70-80% confluency in fully supplemented EGM-2MV. Cultures were serum starved overnight in basal media and then stimulated with recombinant human eotaxin-1 (10 ng/mL), eotaxin-2 (100 ng/mL), eotaxin-3 (2 μg/mL) (Peprotech), or vehicle control (PBS). At 0, 10, 30, 60, or 120 second time-points (n=4 per group), cells were fixed in 3.7% paraformaldehyde for 10 minutes, washed, permeabilized in PBS with 0.1% Triton-X, and then stained with rhodamine labeled Phalloidin (1:200, Invitrogen) per manufacturer's recommendations. Plates were analyzed on a fluorescent plate reader (Synergy 4, Biotek) followed by fluorescent microscopy (Nikon E800).
F-actin polymer ratios between baseline and treated cultures were calculated using a fluorescent based plate assay.

[2] = system: Rac-1 GTPase in Human CECs (hCECs); assay: Rac-1 activation assay (GST-Pak1-PBD pull-down, western blot); format: cell-based; details: hCEC, eotaxin-1 10 ng/ml, at 10 seconds, normalized against control band density
Method: A Rac-1 activation assay was performed. Human CECs were cultured in EGM-2 MV containing 5% FBS. Prior to starting the assay, cells were serum starved with basal medium (MCDB131) supplemented with 1% FB S overnight. Cells were stimulated for designated times with Eotaxin-1, 2 and 3 (10 ng/ml, 100 ng/ml and 2 μg/ml respectively). Equal amounts of lysates (500 μg) were incubated with GST-Pak1-PBD agarose beads (Upstate) to pull-down active GTP-bound Rac-1 at 4° C. for 1 hour with rotation. The samples were subsequently analyzed for bound Rac-1 by western blot analysis using an anti-Rac-1 antibody (Upstate). Band density was measured using VisionWorksLS software (UVP).
hCECs) were stimulated with Eotaxin-1, 2 and 3 for indicated times. Cells without Eotaxin stimulation were used as a control (0 sec). Equal amount (500 μg) of total cell lysates was used to determine the GTP-bound Rac-1 (active) by pull-down assays. Levels of increase of active Rac-1 were measured after normalizing against the control band density.

## (S)-Methyl-2-naphthoylamino-3-(4-nitrophenyl)propionate [SB328437]
[1]
  CNV volume: reduces CNV volume in a dose-dependent and statistically significant manner

## Eotaxin-1: recombinant human eotaxin-1 (Peprotech), CCR3 ligand
Primary hCEC
  time of peak F-actin polymerization after stimulation: 10 s
[2]
  increase of Rac-1 activation: about 6.5 fold

B1: Eotaxin-3: recombinant human eotaxin-3 (Peprotech), CCR3 ligand (protein, UniProt Q9Y258 24-94, looked up)
C-C motif chemokine 26: TRGSDISKTCCFQYSHKPLPWTWVRSYEFTSNSCSQRAVIFTTKRGKKVCTHPRKKWVQKYISLLKTPKQL
Primary hCEC
  time of peak F-actin polymerization after stimulation: 10 s

B2: Eotaxin-2: recombinant human eotaxin-2 (Peprotech), CCR3 ligand (protein, UniProt O00175 27-119, looked up)
C-C motif chemokine 24: VVIPSPCCMFFVSKRIPENRVVSYQLSSRSTCLKAGVIFTTKKGQQFCGDPKQEWVQRYMKNLDAKQKKASPRARAVAVKGPVQRYPGNQTTC
Primary hCEC
  time of peak F-actin polymerization after stimulation: 10 s
